This note sets out measurements from ChEMBL document CHEMBL4000186, “Design and synthesis of novel 2-substituted 11-keto-boswellic acid heterocyclic derivatives as anti-prostate cancer agents with Pin1 inhibition ability” (Eur J Med Chem, 2017).

One may read the GI50 as the concentration that inhibits growth by half. The low end stands for greater sensitivity of the cells, the high end for lower sensitivity of the cells. One may read the IC50 as the point on the concentration scale where inhibition reaches its midpoint. A high value points to weaker potency in that assay.

One assay deals with PC-3. In words: Anti-proliferative activity against human PC3 cells measured after 96 hrs by MTT assay. As to conditions: PC-3, 96 h. The class given is functional. (Tetrazolium dyes change colour on reduction, which living cells bring about.)
For another assay, the system named is LNCaP. In words: Anti-proliferative activity against human LNCAP cells measured after 96 hrs by MTT assay. The class given is functional.
Assay [1] deals with Peptidyl-prolyl cis-trans isomerase NIMA-interacting 1 (Homo sapiens, UniProt Q13526). Description: Inhibition of Pin1 (unknown origin) using Suc-Ala-Glu-cis-Pro-Phe-4-nitroanilide as substrate preincubated for 30 mins followed by substrate addition measured for 90 secs by protease-enzyme coupled assay.
Chain of Peptidyl-prolyl cis-trans isomerase NIMA-interacting 1 (Q13526 whole entry): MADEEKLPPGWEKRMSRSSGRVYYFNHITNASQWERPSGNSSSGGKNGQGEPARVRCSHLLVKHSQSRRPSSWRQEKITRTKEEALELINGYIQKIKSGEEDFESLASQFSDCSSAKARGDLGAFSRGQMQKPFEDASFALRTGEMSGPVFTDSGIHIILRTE

For the molecule `C[C@H]1[C@H](C)CC[C@]2(C)CC[C@]3(C)C(=CC(=O)[C@@H]4[C@@]5(C)C=C(C#N)C(=O)[C@](C)(C(=O)N6CCCC6)[C@@H]5CC[C@]43C)[C@H]12`, the figures for the GI50 in the assay with PC-3 and in the assay on LNCaP were 3.76 µM and 5.37 µM, respectively.

As to `COC(=O)[C@@]1(C)C(=O)C(C(F)(F)F)=C[C@]2(C)[C@H]3C(=O)C=C4[C@@H]5[C@@H](C)[C@H](C)CC[C@]5(C)CC[C@@]4(C)[C@]3(C)CC[C@@H]12`, the values for the GI50 in the assay on PC-3 and in the assay on LNCaP were 3.78 µM and 7.82 µM, respectively.

On to `CC(=O)O[C@@H]1CC[C@@]2(C)[C@@H](CC[C@]3(C)[C@@H]2C(=O)C=C2[C@@H]4[C@@H](C)[C@H](C)CC[C@]4(C)CC[C@]23C)[C@@]1(C)C(=O)O` [AKBA], for which the results for the GI50 in the assay on PC-3 and in the assay with LNCaP were 31.9 µM and 27.4 µM, respectively. Half-maximal inhibition in assay [1] (IC50) required 53 µM.

`CC1CCN(C(=O)[C@@]2(C)C(=O)C(I)=C[C@]3(C)[C@H]4C(=O)C=C5[C@@H]6[C@@H](C)[C@H](C)CC[C@]6(C)CC[C@@]5(C)[C@]4(C)CC[C@@H]23)CC1`: the GI50 in the assay with PC-3 and in the assay with LNCaP was above 12.5 µM in each case.

Take `COC(=O)[C@@]1(C)C(=O)C=C[C@]2(C)[C@H]3C(=O)C=C4[C@@H]5[C@@H](C)[C@H](C)CC[C@]5(C)CC[C@@]4(C)[C@]3(C)CC[C@@H]12`: the GI50 in the assay on PC-3 and in the assay with LNCaP was above 12.5 µM in each case.

Regarding `C[C@H]1[C@H](C)CC[C@]2(C)CC[C@]3(C)C(=CC(=O)[C@@H]4[C@@]5(C)C=C(C(F)(F)F)C(=O)[C@](C)(C(=O)O)[C@@H]5CC[C@]43C)[C@H]12`, the GI50 in the assay on PC-3 turned out to be 4.38 µM; with LNCaP, 4.26 µM.

Turning to `C[C@H]1[C@H](C)CC[C@]2(C)CC[C@]3(C)C(=CC(=O)[C@@H]4[C@@]5(C)C=C(C(F)(F)F)C(=O)[C@](C)(C(=O)N6CCC(N7CCCCC7)CC6)[C@@H]5CC[C@]43C)[C@H]12`, the results for the GI50 with PC-3 and with LNCaP were 1.43 µM and 1.79 µM, respectively.

As for `C[C@H]1[C@H](C)CC[C@]2(C)CC[C@]3(C)C(=CC(=O)[C@@H]4[C@@]5(C)C=C(C(F)(F)F)C(=O)[C@](C)(C(=O)N6CCCC6)[C@@H]5CC[C@]43C)[C@H]12`, the values for the GI50 with PC-3 and in the assay with LNCaP were 2.64 µM and 3.29 µM, respectively.

Regarding `C[C@H]1[C@H](C)CC[C@]2(C)CC[C@]3(C)C(=CC(=O)[C@@H]4[C@@]5(C)C=C(I)C(=O)[C@](C)(C(=O)OCc6ccccc6)[C@@H]5CC[C@]43C)[C@H]12`, the GI50 in the assay on PC-3 and in the assay with LNCaP was above 12.5 µM in each case.

Take `C[C@H]1[C@H](C)CC[C@]2(C)CC[C@]3(C)C(=CC(=O)[C@@H]4[C@@]5(C)C=C(C(F)(F)F)C(=O)[C@](C)(C(=O)OCc6ccccc6)[C@@H]5CC[C@]43C)[C@H]12`: the GI50 was 5.11 µM in the assay with PC-3 and 3.92 µM in the assay on LNCaP.

For `CC1CCN(C(=O)[C@@]2(C)C(=O)C(C(F)(F)F)=C[C@]3(C)[C@H]4C(=O)C=C5[C@@H]6[C@@H](C)[C@H](C)CC[C@]6(C)CC[C@@]5(C)[C@]4(C)CC[C@@H]23)CC1`, the GI50 in the assay with PC-3 stood at 2.48 µM; in the assay with LNCaP it was 4.71 µM.

`C[C@H]1[C@H](C)CC[C@]2(C)CC[C@]3(C)C(=CC(=O)[C@@H]4[C@@]5(C)C=C(I)C(=O)[C@](C)(C(=O)N6CCNCC6)[C@@H]5CC[C@]43C)[C@H]12`: the results for the 50% growth inhibitory concentration (GI50) in the assay with PC-3 and with LNCaP were 3.36 µM and 2.98 µM, respectively. In assay [1], this molecule yielded an IC50 of 4.29 µM.

On to `C[C@H]1[C@H](C)CC[C@]2(C)CC[C@]3(C)C(=CC(=O)[C@@H]4[C@@]5(C)C=C(C#N)C(=O)[C@](C)(C(=O)N6CCCCC6)[C@@H]5CC[C@]43C)[C@H]12`, for which the GI50 with PC-3 stood at 2.89 µM; in the assay on LNCaP, 1.14 µM.

Take `C[C@H]1[C@H](C)CC[C@]2(C)CC[C@]3(C)C(=CC(=O)[C@@H]4[C@@]5(C)C=C(C#N)C(=O)[C@](C)(C(=O)O)[C@@H]5CC[C@]43C)[C@H]12`: the concentration for 50% growth inhibition (GI50) in the assay on PC-3 is 0.18 µM; with LNCaP it was 0.7 µM.

Regarding `C[C@H]1[C@H](C)CC[C@]2(C)CC[C@]3(C)C(=CC(=O)[C@@H]4[C@@]5(C)C=C(C(F)(F)F)C(=O)[C@](C)(C(=O)N6CCNCC6)[C@@H]5CC[C@]43C)[C@H]12`, the GI50 in the assay with PC-3 amounted to 1.07 µM; in the assay on LNCaP it was 2.18 µM. Further, in assay [1], the IC50 is 9.6 µM.

As for `C[C@H]1[C@H](C)CC[C@]2(C)CC[C@]3(C)C(=CC(=O)[C@@H]4[C@@]5(C)C=C(C#N)C(=O)[C@](C)(C(=O)N6CCC(N7CCCCC7)CC6)[C@@H]5CC[C@]43C)[C@H]12`, the GI50 is 0.13 µM in the assay on PC-3 and 0.67 µM in the assay with LNCaP.

For `C[C@H]1[C@H](C)CC[C@]2(C)CC[C@]3(C)C(=CC(=O)[C@@H]4[C@@]5(C)C=C(I)C(=O)[C@](C)(C(=O)O)[C@@H]5CC[C@]43C)[C@H]12`, the results for the GI50 in the assay on PC-3 and in the assay with LNCaP were 4.65 µM and 3.78 µM, respectively.

`COC(=O)[C@@]1(C)C(=O)C(C#N)=C[C@]2(C)[C@H]3C(=O)C=C4[C@@H]5[C@@H](C)[C@H](C)CC[C@]5(C)CC[C@@]4(C)[C@]3(C)CC[C@@H]12`: the results for the GI50 with PC-3 and in the assay on LNCaP were 1.2 µM and 2.34 µM, respectively.

`C[C@H]1[C@H](C)CC[C@]2(C)CC[C@]3(C)C(=CC(=O)[C@@H]4[C@@]5(C)C=C(I)C(=O)[C@](C)(C(=O)N6CCCC6)[C@@H]5CC[C@]43C)[C@H]12`: the GI50 in the assay with PC-3 and with LNCaP was above 12.5 µM throughout.

On to `C[C@H]1[C@H](C)CC[C@]2(C)CC[C@]3(C)C(=CC(=O)[C@@H]4[C@@]5(C)C=CC(=O)[C@](C)(C(=O)OCc6ccccc6)[C@@H]5CC[C@]43C)[C@H]12`, for which the GI50 in the assay with PC-3 and in the assay on LNCaP was above 12.5 µM each time.

Take `C[C@H]1[C@H](C)CC[C@]2(C)CC[C@]3(C)C(=CC(=O)[C@@H]4[C@@]5(C)C=C(I)C(=O)[C@](C)(C(=O)N6CCCCC6)[C@@H]5CC[C@]43C)[C@H]12`: the GI50 in the assay on PC-3 and with LNCaP was above 12.5 µM each time.

`C[C@H]1[C@H](C)CC[C@]2(C)CC[C@]3(C)C(=CC(=O)[C@@H]4[C@@]5(C)C=C(C#N)C(=O)[C@](C)(C(=O)OCc6ccccc6)[C@@H]5CC[C@]43C)[C@H]12`: the GI50 came to 0.45 µM in the assay on PC-3 and 1.66 µM in the assay on LNCaP.

In the case of `C[C@H]1[C@H](C)CC[C@]2(C)CC[C@]3(C)C(=CC(=O)[C@@H]4[C@@]5(C)C=C(I)C(=O)[C@](C)(C(=O)N6CCC(N7CCCCC7)CC6)[C@@H]5CC[C@]43C)[C@H]12`, the GI50 stood at 4.22 µM with PC-3 and 3.59 µM with LNCaP.

With `COC(=O)[C@@]1(C)C(=O)C(I)=C[C@]2(C)[C@H]3C(=O)C=C4[C@@H]5[C@@H](C)[C@H](C)CC[C@]5(C)CC[C@@]4(C)[C@]3(C)CC[C@@H]12`, the GI50 in the assay on PC-3 and in the assay with LNCaP was above 12.5 µM in each case.

Turning to `C[C@H]1[C@H](C)CC[C@]2(C)CC[C@]3(C)C(=CC(=O)[C@@H]4[C@@]5(C)C=C(C(F)(F)F)C(=O)[C@](C)(C(=O)N6CCCCC6)[C@@H]5CC[C@]43C)[C@H]12`, the GI50 came to 3.27 µM with PC-3 and 3.21 µM in the assay on LNCaP.

Take `CC1CCN(C(=O)[C@@]2(C)C(=O)C(C#N)=C[C@]3(C)[C@H]4C(=O)C=C5[C@@H]6[C@@H](C)[C@H](C)CC[C@]6(C)CC[C@@]5(C)[C@]4(C)CC[C@@H]23)CC1`: the GI50 in the assay on PC-3 came to 2.07 µM; in the assay with LNCaP, 3.82 µM.
